# Read-outs that look alike come from different tables or passages of the source.
# Columns and labels:
# [1] = Acute Toxicity Test; assay type: in vivo; details: mouse, in vivo; mice, oral, mortality one week after administration
# Procedure: (§1) A test compound was dissolved or suspended in olive oil and administered orally to mice (ddY mice, .male., 23±2 g, n=5). The acute toxicity value (LD50) was determined from the mortality one week after the administration.
# [2] = system: mice; test: Acute Toxicity Test; assay type: in vivo; details: oral, one week after administration
# Procedure: as §1
# [3] = system: liver (acute liver injury induced by carbon tetrachloride); test: Protective Effect on Acute Liver Injury Induced by Carbon Tetrachloride; assay type: in vivo, mice (ddY); details: mice; for inhibition in vivo at 50 mg/kg: Mus musculus, po, 50 mg/kg p.o. 6 h before CCl4, CCl4 alone = 0, normal = 100; for Liver Damage Index: 50 mg/kg p.o. 6 h before CCl4 0.05 ml/kg p.o., visual score 0 normal, 2 slightly, 4 distinctly, 6 remarkably injured, CCl4 alone 6.0
# Procedure: A test compound was dissolved or suspended in olive oil and administered orally at a dose of 50 mg/kg to mice (ddY, mice, .male., 23±2 g, n=5). After 6 hours, carbon tetrachloride (0.05 ml/kg) was administered orally, 24 Hours after the administration of carbon tetrachloride, BSP (sodium sulfobromophthalene; 75 mg/kg) was administered intravenously. Thirty minutes later, the cardiac blood was collected, and GPT (glutamic-pyruvic transaminase) activity and the retention rate of BSP in the plasma were measured. Further, the liver injury immediately after the collection of the blood was visually observed and evaluated by the following score for liver damage index.
# [4] = system: liver damages; details: in vivo; cited from earlier work
# [5] = system: liver protein synthesis; test: Effect on Protein Synthesis in Liver; assay type: in vivo, rats (Wister strain); details: rats, 100 mg/kg p.o. for 3 days
# Procedure: Compound 6 was dissolved in olive oil and orally administered successively for 3 days at a dose of 100 mg/kg to rats (Wister strain, .male., 180±10 g, 6 week-old, n=5). 24 Hours after the administration of the test compound was completed, the animals were sacrificed. The effect on the protein synthesis in the liver was evaluated by determining the liver weight and protein content.
# [6] = system: fatty liver induced by carbon tetrachloride; test: Therapeutic Effect on Fatty Liver Induced by Carbon Tetrachloride; assay type: in vivo, rats (SD strain); details: rats, 50 mg/kg p.o. for 7 days
# Procedure: Carbon tetrachloride (1 ml/kg) was subcutaneously administered to rats (SD strain, .male., 38 week-old, n=5) for 4 days. Upon expiration of 3 days from the administration of carbon tetrachloride, Compound 6 was orally given successively for 7 days at the dose of 50 mg/kg. On the 8th day, the animals were sacrificed by exsanguination. The therapeutic effect was evaluated by examining the content of triglyceride in the liver and the concentration of apoprotein B in the plasma.
# [7] = BSP 75 mg/kg i.v., retention in plasma after 30 min, read-out: % Prophylaxis BSP
# [8] = plasma GPT activity, read-out: % Prophylaxis p-GPT
SMILES,LD50 at 168 h [1],toxicity (in words) [2],"inhibition in vivo at 50 mg/kg [3, 7]","inhibition in vivo at 50 mg/kg [3, 8]",Liver Damage Index [3],further results
"CC(=O)C(C(=O)c1ccc2ccccc2c1)=C1SC=CS1 [Compound 28, 2-(1,3-dithiol-2-ylidene)-1-(2-naphthyl)-1,3-butanedione]",≥ 2000 mg/kg,low toxicity,,,,
"CC(C)CC(=O)C(C(=O)CC(C)C)=C1SC=CS1 [Compound 4, 5-(1,3-dithiol-2-ylidene)-2,8-dimethyl-4,6-nonanedione]",≥ 2000 mg/kg,low toxicity,108%,100%,1.0,
"CCCC(=O)C(C(=O)c1ccccc1)=C1SC=CS1 [Compound 7, 2-(1,3-dithiol-2-ylidene)-1-phenyl-1,3-hexanedione]",≥ 2000 mg/kg,low toxicity,,,,
"CCC(=O)C(C(C)=O)=C1SC=CS1 [Compound 2, 3-(1,3-dithiol-2-ylidene)-2,4-hexanedione]",,,85%,72%,1.4,
"CC(C)CC(=O)C(C(=O)c1ccccc1)=C1SC=CS1 [Compound 8, 2-(1,3-dithiol-2-ylidene)-5-methyl-1-phenyl-1,3-hexanedione]",≥ 2000 mg/kg,low toxicity,,,,
"CCOCC(=O)C(C(C)=O)=C1SC=CS1 [Compound 3, 3-(1,3-dithiol-2-ylidene)-1-ethoxy-2,4-pentanedione]",,,102%,97%,2.2,
"COc1ccc(C(=O)C(C(C)=O)=C2SC=CS2)cc1 [Compound 17, 2-(1,3-dithiol-2-ylidene)-1-(4-methoxyphenyl)-1,3-butanedione]",≥ 2000 mg/kg,low toxicity,,,,
"CC(C)C1CCC(=O)C(=C2SC=CS2)C1=O (centres unmarked) [Compound 43, 2-(1,3-dithiol-2-ylidene)-4-isopropyl-1,3-cyclohexanedione]",,,95%,67%,5.6,
CC(C)OC(=O)C(C(=O)OC(C)C)=C1SC=CS1 [Malotilate],,,,,,effectiveness for the treatment of liver damages (in words) [4]: effective for the treatment of liver damages
"CC(=O)C(C(=O)c1ccc(C)cc1)=C1SC=CS1 [Compound 12, 2-(1,3-dithiol-2-ylidene)-1-(4-methylphenyl)-1,3-butanedione]",≥ 2000 mg/kg,low toxicity,,,,
"CC1(C)CC(=O)C(=C2SC=CS2)C(=O)C1 [Compound 44, 2-(1,3-dithiol-2-ylidene)-5,5-dimethyl-1,3-cyclohexanedione]",,,111%,95%,1.2,
"CC(=O)C(C(C)=O)=C1SC=CS1 [Compound 1, 3-(1,3-dithiol-2-ylidene)-2,4-pentanedione]",,,80%,25%,5.0,
"CC(=O)C(C(=O)c1ccccc1)=C1SC=CS1 [Compound 6, 2-(1,3-dithiol-2-ylidene)-1-phenyl-1,3-butanedione]",≥ 2000 mg/kg,low toxicity,,,,effect for stimulating the protein metabolic function of the liver (in words) [5]: substantial effect for stimulating the protein metabolic function of the liver; effect for curing the fatty liver (in words) [6]: significant effect for curing the fatty liver
"CC(=O)C(C(=O)C1CCCCC1)=C1SC=CS1 [Compound 5, 2-(1,3-dithiol-2-ylidene)-1-cyclohexyl-1,3-butanedione]",≥ 2000 mg/kg,low toxicity,96%,89%,2.8,
"CC(=O)C(C(=O)c1ccc(O)cc1)=C1SC=CS1 [Compound 45, 2-(1,3-dithiol-2-ylidene)-1-(4-hydroxyphenyl)-1,3-butanedione]",≥ 2000 mg/kg,low toxicity,,,,
"CC1CCC(=O)C(=C2SC=CS2)C1=O (centres unmarked) [Compound 42, 2-(1,3-dithiol-2-ylidene)-4-methyl-1,3-cyclohexanedione]",,,60%,29%,6.0,
"CCCCCCCCCCCCCCCC(=O)C(C(=O)c1ccccc1)=C1SC=CS1 [Compound 10, 2-(1,3-dithiol-2-ylidene)-1-phenyl-1,3-octadecanedione]",,,78%,42%,2.0,
"O=C1CCCC(=O)C1=C1SC=CS1 [Compound 41, 2-(1,3-dithiol-2-ylidene)-1,3-cyclohexanedione]",,,66%,29%,6.0,
"CC(=O)C(C(=O)c1cccc2ccccc12)=C1SC=CS1 [Compound 27, 2-(1,3-dithiol-2-ylidene)-1-(1-naphthyl)-1,3-butanedione]",≥ 2000 mg/kg,low toxicity,,,,

# Reference: patent publication US4668799A, “Anti-hepatitis and anti-cirrhotic 1,3-dithiol-2-ylidene derivatives, and pharmaceutical compositions therefor” (Banyu Pharmaceutical Co., Ltd., priority 1985, dated 1987)
